The text below walks through data of PubChem BioAssay AID489035 (Sanford-Burnham Center for Chemical Genomics, 2010).

Calls of active or inactive are those of the source. How the calls were made is not given here. Starred links: 1 amine or outer side, 2 acyl side, 3 side chain; linkers in the order of their positions; H or OH if unused. Non-standard residues stand in square brackets, D forms with d. Residues, ends and D or L forms follow the SMILES beside them. X2 = CCC[C@@H](N[*:1])[C@H](C)C(=O)O[C@H](C(=O)[*:2])[C@@H](C)CC; X1 = CC(N[*:1])C(=O)C(C)(C)C(=O)[*:2]; NMeY = CN[C@@H](Cc1ccc(O)cc1)C(=O)O; NMeL = CN[C@@H](CC(C)C)C(=O)O; NMeV = CN[C@H](C(=O)O)C(C)C; NMeA = CN[C@@H](C)C(=O)O Some results are limits rather than exact numbers.

As a reminder, the IC50 is the concentration at which inhibition is half-maximal.

This test has as its system Jurkat NF-kB reporter, TCR-induced, luciferase luminescence. The test can be described thus: inhibitors of TCR-driven NF-kB activation, dose response, Jurkat cells, luminescence (AID 489035).
Take `Cc1cc(C)c(S(=O)(=O)Nc2ccc3c4c(cccc24)CC3)c(C)c1`: the IC50 is 61 µM (inactive). Consider `CCCCCCCCn1c2c(c(=N)c3ccccc31)CCC2`, for which the IC50 is 3.43 µM. Under `CC(=O)O[C@H]1C(=O)[C@@]2(C)[C@H]([C@H](OC(=O)c3ccccc3)[C@]3(O)C[C@H](OC(=O)[C@H](O)[C@@H](NC(=O)c4ccccc4)c4ccccc4)C(C)=C1C3(C)C)[C@]1(OC(C)=O)CO[C@@H]1C[C@@H]2O` stands 11 µM; under `COc1cc2nc(CN3CC=C(c4ccccc4)CC3)[nH]c(=O)c2cc1OC`, > 80 µM (inactive); under `Cc1ccc2c(c1)sc(-c1ccc(N(C)C)cc1)[n+]2C`, > 80 µM (inactive). On to `COc1ccc(NC(=O)/C(Cl)=C(/Cl)S(=O)Cc2ccc(C)cc2)cn1` (stereo unspecified), for which the IC50 was 0.32 µM.

As to `CCOc1cccc(-c2nnc3n2N=C(c2cc(OC)ccc2OC)CS3)c1`, the IC50 was > 80 µM (inactive). As for `Clc1cccc(Cl)c1OCCOCCNCc1ccccc1`, the IC50 is > 80 µM (inactive). As to `Cc1ccc(C(=O)c2cc([N+](=O)[O-])ccc2N2CCOCC2)c(C)c1`, the IC50 is 54.5 µM (inactive). Under `O=C(N/N=C/c1c(O)ccc2ccccc12)c1ccc(Br)o1` stands 60.7 µM (inactive); under `Cc1ccc(C(=O)c2cc([N+](=O)[O-])ccc2N2CCCCC2)c(C)c1`, > 80 µM (inactive); under `O=c1cc(-c2ccccc2)[nH]c2cc(Cl)ccc12`, 18.8 µM. Under `CC(=O)O[C@@]12CO[C@@H]1C[C@@H](O)[C@@]1(C)C(=O)[C@H](O)C3=C(C)[C@@H](OC(=O)[C@H](O)[C@@H](NC(=O)c4ccccc4)c4ccccc4)C[C@@](O)([C@@H](OC(=O)c4ccccc4)C12)C3(C)C` (stereo partly specified) stands < 0.16 µM; under `COc1ccc(C2=NOC(C(=O)NCc3ccc(F)cc3)C2)cc1OC` (stereo unspecified), > 80 µM (inactive). As to `CCC[C@H]1NC(=O)[C@H](C)N(C)C(=O)C(C)(C)C(=O)C(C)NC(=O)[C@H](Cc2ccc(OC)cc2)N(C)C(=O)[C@H](C(C)C)N(C)C(=O)CNC(=O)[C@H](CC(C)C)N(C)C(=O)CNC(=O)[C@H]([C@@H](C)CC)OC(=O)[C@H]1C` (stereo partly specified) (cyclo(G[NMeL]G[NMeV][NMeY](Me)[X1][NMeA][X2])), the IC50 is > 80 µM (inactive).

In the case of `COc1ccc(/C=N/NC(=O)c2[nH]c3ccc(Br)cc3c2-c2ccccc2)cc1`, the IC50 is 1.64 µM.

Consider `Cc1ccccc1NC1=C/C(=N\S(=O)(=O)c2cccs2)c2ccccc2C1=O`, for which the IC50 is 1.25 µM. Under `Cc1ccc(C)c(CSc2nc3[nH]ncc3c(=O)[nH]2)c1` stands 39.2 µM (inactive); under `COc1ccc(C(=O)c2ccc(N(C)C)cc2)c(OC)c1`, > 80 µM (inactive); under `CCCCc1ccc(NC(=O)c2ccc(N(C)S(C)(=O)=O)cc2)cc1`, < 0.16 µM.

With `O=C(Nc1ccn(Cc2ccccc2F)n1)c1ccc(COc2ccc(Br)cc2)cc1`, the IC50 is > 80 µM (inactive).

For `Cn1cc(/C=N/n2cnc3scc(-c4ccc(Cl)cc4)c3c2=O)c2ccccc21`, the IC50 is > 80 µM (inactive).

Consider `Cn1cc(C(=O)N/N=C/c2c(O)ccc3ccccc23)ccc1=O`, for which the IC50 is 1.89 µM. Under `CCOc1ccccc1C1CC(=O)Nc2cc3c(cc21)OCCO3` (stereo unspecified) stands 3.96 µM. `CCOC(=O)COc1cccc2c(=O)n(CC(=O)NCc3ccccc3)ccc12`: the IC50 is > 80 µM (inactive).

In the case of `CCCCc1ccc(NC(=O)C(=O)NCCN2CCN(Cc3ccc([N+](=O)[O-])cc3)CC2)cc1`, the IC50 was > 80 µM (inactive). With `CC(C)Nc1ccc(C(CC(N)=O)NC(=O)Cc2ccc(Br)cc2)cc1[N+](=O)[O-]` (stereo unspecified), the IC50 is 1.71 µM. For the molecule `COc1ccc(C2=Nn3c([n+](C)c4ccccc43)SC2)cc1`, the IC50 is > 80 µM (inactive). Turning to `CCOCCOC(=O)c1[nH]c2c(c1C)C(=O)CC(c1ccccc1)C2` (stereo unspecified), the IC50 is > 80 µM (inactive). As for `COc1cc(/C=C/[N+](=O)[O-])ccc1OCc1cccc(C(=O)O)c1`, the IC50 was 0.55 µM. `COc1ccc(OC)c(C2CC(=O)c3c([nH]c(C(=O)OC(C)C)c3C)C2)c1` (stereo unspecified): the IC50 was > 80 µM (inactive). `Cc1cccc(N=Nc2ccc(O)c3ncccc23)c1`: the IC50 was 6.14 µM. Under `COc1ccc(C(=O)N2CCN(c3ccc([N+](=O)[O-])c(NCCc4ccc(OC)c(OC)c4)c3)CC2)cc1` stands > 80 µM (inactive).

Take `CCCC(=O)NC(c1ccc(N(C)C)cc1)c1ccc2cccnc2c1O` (stereo unspecified): the IC50 was 6.58 µM. For `CCOc1ccc(N(C)S(=O)(=O)c2ccc(-c3cc(C)no3)s2)cc1`, the IC50 is > 80 µM (inactive). Under `O=C(NC(Nc1nc2ccc([N+](=O)[O-])cc2s1)(C(F)(F)F)C(F)(F)F)c1ccccc1` stands > 80 µM (inactive).

With `COc1cc(C2C(C#N)=C(N)Oc3cc4c(cc32)OCO4)cc(OC)c1OC` (stereo unspecified), the IC50 is 34.1 µM (inactive). For `Cc1cc(O)c2c(c1O)C(=O)[C@]13C(=C2O)C(=O)[C@@H]2[C@@H](O)[C@H]1[C@@H]1[C@H](O)[C@H]3C(=O)C3=C(O)c4c(O)cc(C)c(O)c4C(=O)[C@]312`, the IC50 is < 0.16 µM. Turning to `C=C(C)C(=O)O[C@H]1C/C(C)=C\C(=O)/C=C(\C)[C@H](O)[C@@H]2OC(=O)C(=C)[C@@H]21`, the IC50 is 2.06 µM.

With `Cc1ccc(N(C)S(=O)(=O)c2ccc(-c3cnc(C4CC4)o3)cc2)cc1`, the IC50 is 44.6 µM (inactive). Regarding `COc1ccc([C@H]2CC(=O)C=C(c3c(OC)cccc3OC)C2)cc1`, the IC50 was > 80 µM (inactive). Under `COC(=O)c1[nH]c2c(c1C)C(=O)CC(c1cccs1)C2` (stereo unspecified) stands > 80 µM (inactive). Turning to `COc1ccc(C(=O)N(C)Cc2cnn(Cc3ccccc3)c2)cc1S(=O)(=O)N1CCOCC1`, the IC50 is > 80 µM (inactive). On to `CCC(C)C(=O)N[C@@H](c1ccccc1)[C@@H](O)C(=O)O[C@H]1C[C@@]2(O)[C@@H](OC(=O)c3ccccc3)C3[C@](C)(C(=O)[C@H](OC(C)=O)C(=C1C)C2(C)C)[C@@H](O)C[C@H]1OC[C@@]31OC(C)=O` (stereo partly specified), for which the IC50 is > 80 µM (inactive).

For `C=C1C(=O)C=C2CN(C(=O)c3ccccc3)[C@@](Cc3ccc(F)cc3)(C(=O)OC)[C@@H]12`, the IC50 is 0.89 µM. On to `CC[C@@]1(O)C(=O)OCc2c1cc1n(c2=O)Cc2cc3c(N)cccc3nc2-1`, for which the IC50 is < 0.16 µM. Under `Cc1ccc(S(=O)(=O)NCc2ccncc2)cc1C` stands > 80 µM (inactive). Regarding `Cc1c(C(=O)N/N=C/c2ccc(Cl)cc2)[nH]c2ccc(Cl)cc12`, the IC50 was > 80 µM (inactive). Regarding `COC(=O)c1ccc(C)c(NS(=O)(=O)c2ccc3c(c2)OCCO3)c1`, the IC50 was > 80 µM (inactive). Take `COc1ccc(N(C(=O)c2ccccc2C)S(=O)(=O)c2cccs2)cc1`: the IC50 was 20 µM (inactive).

Regarding `COc1ccc(Cl)cc1NC(=O)CN(C)CC(=O)Nc1ccccc1N1CCOCC1`, the IC50 was 41.5 µM (inactive). For the molecule `Cc1ccc(-c2cc3c(N=O)c4ccccc4c-3n[nH]2)cc1`, the concentration for half-maximal inhibition (IC50) is 1.65 µM. Under `CC(=O)Nc1ccc(S(=O)(=O)N2c3ccc(F)cc3CCC2C)cc1` (stereo unspecified) stands 7.46 µM; under `O=C1CC(c2cc(F)ccc2F)c2cc3c(cc2N1)CCC3` (stereo unspecified), > 80 µM (inactive); under `COc1cccc(/C=N/Nc2ncnc3c2ncn3Cc2ccccc2)c1O`, > 80 µM (inactive). Under `COc1ccc(Br)cc1/C(C)=N/NC1=NCCN1` stands > 80 µM (inactive); under `C=C(C)COc1ccc(-c2n[nH]c(C)c2-c2ccc(OC)c(OC)c2)c(O)c1`, 21.1 µM (inactive). Regarding `Cc1ccc(/C=N/NC(=O)c2c(C)nc3ccc(Br)cn23)cc1`, the IC50 is > 80 µM (inactive). Take `CCCCC(=O)NC(c1ccc(Cl)cc1Cl)c1ccc2cccnc2c1O` (stereo unspecified): the IC50 is 9.87 µM. Under `CCCC(=O)NC(c1ccc(OC)cc1)c1ccc2cccnc2c1O` (stereo unspecified) stands 2.83 µM; under `CCOC(=O)c1[nH]c(C=O)c(C(=O)OCC)c1C`, > 80 µM (inactive).

Regarding `CC(=O)N1c2ccc(S(=O)(=O)N3CCC(C(=O)Nc4cccc(C)n4)CC3)cc2CC1C` (stereo unspecified), the IC50 was > 80 µM (inactive). `CCS(=O)(=O)c1ncc(Cl)c(C(=O)Nc2ccc(S(=O)(=O)N(C)c3ccccc3)cc2)n1`: the IC50 was 0.8 µM. Under `CC1=C(C(=O)OCc2ccc3c(c2)OCO3)C(c2ccc(Cl)cc2)NC(=O)N1` (stereo unspecified) stands 0.63 µM; under `CCOc1ccc(S(=O)(=O)NCc2ccccn2)cc1NC(=O)c1ccccc1F`, > 80 µM (inactive); under `C/C(=N\NC(=O)c1cc(C)nc2ccccc12)c1ccccn1`, > 80 µM (inactive). For `CCCCCCCCCn1c2c(c(=N)c3c1CCC3)CCC2`, the IC50 was 7.67 µM.

For `COc1ccccc1CNS(=O)(=O)c1ccc(-c2cnc(C3CC3)o2)cc1`, the IC50 was 31.3 µM (inactive).

For `CCN(CC)c1ccc(-c2nn3c(-c4n[nH]c5c4CCC5)nnc3s2)cc1`, the IC50 was 47.1 µM (inactive). As to `COc1ccc(S(=O)(=O)N2N=C(C)Oc3ccccc3C2=O)cc1`, the IC50 was 33 µM (inactive). `Cc1ccc(C)c(N=Nc2ccc(O)c3ncccc23)c1`: the IC50 is 28.3 µM (inactive). Turning to `COc1cc(C2C(C#N)=C(N)Oc3cc(N(C)C)ccc32)cc2c1OCO2` (stereo unspecified), the IC50 was > 80 µM (inactive). In the case of `CC(C)CCOc1cccc(OCC(=O)Nc2ccncc2)c1`, the IC50 was > 80 µM (inactive). Consider `O=C(c1ccc(Br)cc1)c1cc([N+](=O)[O-])ccc1N1CCOCC1`, for which the IC50 was 64.3 µM (inactive). Turning to `COc1cc(C2c3cc4c(cc3C(OC3OC5COC(c6cccs6)OC5C(O)C3O)C3COC(=O)C23)OCO4)cc(OC)c1O` (stereo unspecified), the concentration for half-maximal inhibition (IC50) is 0.68 µM. For `Oc1ccccc1N=Nc1nc(-c2ccccc2)c(-c2ccccc2)[nH]1`, the IC50 is 0.82 µM. With `COc1ccccc1-c1nnc2n1N=C(c1ccc(O)c(O)c1)CS2`, the IC50 was 7.43 µM. For `Cc1ccc(O)c(NC(=O)c2cc(-c3ccccc3)on2)c1`, the IC50 was > 80 µM (inactive).

As to `N#C/C(=C\c1ccc(OCc2ccc(C(=O)O)cc2)cc1)C(=O)N1CCOCC1`, the IC50 was 1.55 µM. As for `Cc1cccc(N2CCN(C(=O)c3c(-c4ccccc4Cl)noc3C)CC2)c1C`, the IC50 is 78.6 µM (inactive). Take `O=C(N/N=C(\c1ccccc1)c1cccnc1)c1cccc(F)c1`: the IC50 was 5.3 µM.
